{"source": "paper PMC6909574", "about": "“The in vivo impact of MsLAC1, a Miscanthus laccase isoform, on lignification and lignin composition contrasts with its in vitro substrate preference” (BMC Plant Biology, 2019)", "target": "T1, MsLAC1 (Miscanthus sinensis, UniProt A0A5B8YT74)", "T1 construct": "recombinant, secreted from Pichia pastoris X33 (pPICZalphaA, alpha-factor, MYC and HIS tags)", "T1 sequence (A0A5B8YT74 32-583)": "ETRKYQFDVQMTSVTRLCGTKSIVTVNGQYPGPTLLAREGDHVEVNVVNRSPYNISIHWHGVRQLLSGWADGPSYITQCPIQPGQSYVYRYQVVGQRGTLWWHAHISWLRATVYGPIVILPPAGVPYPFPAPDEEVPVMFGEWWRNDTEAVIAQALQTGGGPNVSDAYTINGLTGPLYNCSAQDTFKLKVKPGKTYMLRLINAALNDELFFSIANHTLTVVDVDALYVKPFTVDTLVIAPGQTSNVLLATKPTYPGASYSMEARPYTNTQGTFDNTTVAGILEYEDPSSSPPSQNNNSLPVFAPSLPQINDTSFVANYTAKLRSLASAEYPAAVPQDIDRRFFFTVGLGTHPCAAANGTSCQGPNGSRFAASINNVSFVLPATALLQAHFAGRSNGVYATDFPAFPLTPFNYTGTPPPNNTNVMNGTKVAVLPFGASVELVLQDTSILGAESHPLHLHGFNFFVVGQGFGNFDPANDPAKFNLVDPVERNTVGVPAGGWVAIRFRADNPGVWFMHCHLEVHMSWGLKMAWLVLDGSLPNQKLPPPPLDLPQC", "assay": "UV-Vis spectra over time ([…]-650 nm)", "type": "biochemical", "conditions": "0.5 mM substrate, 0.02 U enzyme, 50 mM sodium acetate pH 5.0, 30 °C"}
{"smiles": "COc1cc(/C=C/CO)ccc1O", "note": "[coniferyl alcohol]", "values": [{"measurement": "UV-Vis spectra over time (250-650 nm)", "value": "recombinant MsLAC1 enzyme was able to oxidize all supplemented monolignols"}]}
